Assay results from patent US20230139445A1, “BACTERIAL CELLS WITH IMPROVED TOLERANCE TO DIACIDS” (priority 2016, published 2023).
Read-outs that look alike come from different tables or passages of the source.

Columns and labels:
[1] = test system: Escherichia coli K-12 MG1655; experiment: Growth of K-12 MG1655 in varying concentrations of fumaric, itaconic, malic and succinic acid, Growth Profiler; assay type: cell-based
Method: Five colonies from wild-type K-12 MG1655 and 10 individual colonies deriving from each population were inoculated into 300 μL M9+1% glucose in 96 well deepwell plates and incubated in a 300 rpm plate shaker at 37° C. The next day, cells were diluted 10× in M9+1% glucose and 30 μL was transferred into clear-bottomed 96 well half-deepwell plates (with rectangular wells) containing M9+1% glucose and M9+1% glucose+52.78 g/L glutaric acid or 55.56 g/L adipic acid, such that the final concentration of glutaric acid or adipic acid was 47.5 g/L or 50 g/L, respectively. In addition, cryogenic glycerol stocks of the overnight culture were saved in a 96 well plate format. Half deepwell plates were incubated at 37° C. with 225 rpm shaking in a Growth Profiler (Enzyscreen), with optical scans of the plates taken at 15 minute intervals. Green pixel values integrated over a 1 mm diameter circular area in each well were converted to OD600 values using a previously determined calibration between OD600 and green pixel values.
Additionally, each evolved isolate was tested for cross-tolerance toward other dicarboxylic acids of interest. […] All diacids tested were either the neutral sodium salts, or the free diacid was neutralized with sodium hydroxide to pH 7.0 for testing.

[2] = test system: Escherichia coli K-12 MG1655 and evolved isolates; assay type: cell-based; conditions: 55 g/L malic acid
Method in brief: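 Wild-type MG1655 and evolved isolates, precultured overnight in M9 + 1% glucose at 37 °C, were diluted into M9 + 1% glucose. Growth at 37 °C, 225 rpm, scanned every 15 min; pixel values calibrated to OD600. Diacids tested as sodium salts or neutralized to pH 7.0.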

With `O=C(O)CC(O)C(=O)O` (centres unmarked) [malic acid] the “μ (mean)” value ([1]; growth rate of K-12 MG1655, 10 g/L diacid (sodium salt)) was 0.686 h^1, the “μ (mean)” value ([1]; growth rate of K-12 MG1655, 20 g/L diacid (sodium salt)) was 0.639 h^1 and the “μ (mean)” value ([1]; growth rate of K-12 MG1655, 30 g/L diacid (sodium salt)) was 0.526 h^1. The “μ (mean)” value ([1]; growth rate of K-12 MG1655, 40 g/L diacid (sodium salt)) was 0.410 h^1, the “μ (mean)” value ([1]; growth rate of K-12 MG1655, 50 g/L diacid (sodium salt)) was 0.287 h^1 and the “μ (mean)” value ([1]; growth rate of K-12 MG1655, 60 g/L diacid (sodium salt)) was 0.154 h^1. For the same compound, the “tlag (mean)” value ([1]; lag time of K-12 MG1655, 10 g/L diacid (sodium salt)) was 5.9 h, the “tlag (mean)” value ([1]; lag time of K-12 MG1655, 20 g/L diacid (sodium salt)) was 6.6 h and the “tlag (mean)” value ([1]; lag time of K-12 MG1655, 30 g/L diacid (sodium salt)) was 8.0 h. The “tlag (mean)” value ([1]; lag time of K-12 MG1655, 40 g/L diacid (sodium salt)) was 11.1 h, the “tlag (mean)” value ([1]; lag time of K-12 MG1655, 50 g/L diacid (sodium salt)) was 16.9 h and the “tlag (mean)” value ([1]; lag time of K-12 MG1655, 60 g/L diacid (sodium salt)) was 28.3 h. For the same compound, the “growth rate μ (mean)” value ([2]; strain ADIP1-1) was 0.333 h⁻¹, the “lag time tlag (mean)” value ([2]; strain ADIP1-1) was 12.8 h and the “growth rate μ (mean)” value ([2]; strain ADIP1-9) was 0.336 h⁻¹. For the same compound, the “lag time tlag (mean)” value ([2]; strain ADIP1-9) was 10.7 h, the “growth rate μ (mean)” value ([2]; strain ADIP2-5) was 0.338 h⁻¹ and the “lag time tlag (mean)” value ([2]; strain ADIP2-5) was 17.9 h. The “growth rate μ (mean)” value ([2]; strain ADIP2-6) was 0.348 h⁻¹, the “lag time tlag (mean)” value ([2]; strain ADIP2-6) was 16.8 h and the “growth rate μ (mean)” value ([2]; strain ADIP2-10) was 0.347 h⁻¹. For the same compound, the “lag time tlag (mean)” value ([2]; strain ADIP2-10) was 16.8 h, the “growth rate μ (mean)” value ([2]; strain ADIP3-2) was 0.318 h⁻¹ and the “lag time tlag (mean)” value ([2]; strain ADIP3-2) was 10.7 h. For the same compound, the “growth rate μ (mean)” value ([2]; strain ADIP3-4) was 0.347 h⁻¹, the “lag time tlag (mean)” value ([2]; strain ADIP3-4) was 9.9 h and the “growth rate μ (mean)” value ([2]; strain ADIP3-8) was 0.329 h⁻¹. The “lag time tlag (mean)” value ([2]; strain ADIP3-8) was 11.4 h, the “growth rate μ (mean)” value ([2]; strain ADIP4-1) was 0.275 h⁻¹ and the “lag time tlag (mean)” value ([2]; strain ADIP4-1) was 12.1 h. The “growth rate μ (mean)” value ([2]; strain ADIP4-8) was 0.238 h⁻¹, the “lag time tlag (mean)” value ([2]; strain ADIP4-8) was 13.4 h and the “growth rate μ (mean)” value ([2]; strain ADIP5-2) was 0.299 h⁻¹. For the same compound, the “lag time tlag (mean)” value ([2]; strain ADIP5-2) was 10.1 h, the “growth rate μ (mean)” value ([2]; strain ADIP5-6) was 0.404 h⁻¹ and the “lag time tlag (mean)” value ([2]; strain ADIP5-6) was 10.2 h. For the same compound, the “growth rate μ (mean)” value ([2]; strain ADIP6-3) was 0.295 h⁻¹, the “lag time tlag (mean)” value ([2]; strain ADIP6-3) was 11.6 h and the “growth rate μ (mean)” value ([2]; strain ADIP6-9) was 0.250 h⁻¹. The “lag time tlag (mean)” value ([2]; strain ADIP6-9) was 12.7 h, the “growth rate μ (mean)” value ([2]; strain ADIP6-10) was 0.323 h⁻¹ and the “lag time tlag (mean)” value ([2]; strain ADIP6-10) was 10.0 h. For the same compound, the “growth rate μ (mean)” value ([2]; strain ADIP7-2) was 0.329 h⁻¹, the “lag time tlag (mean)” value ([2]; strain ADIP7-2) was 10.3 h and the “growth rate μ (mean)” value ([2]; strain ADIP7-5) was 0.326 h⁻¹. The “lag time tlag (mean)” value ([2]; strain ADIP7-5) was 10.2 h, the “growth rate μ (mean)” value ([2]; strain ADIP8-3) was 0.194 h⁻¹ and the “lag time tlag (mean)” value ([2]; strain ADIP8-3) was 14.4 h. The “growth rate μ (mean)” value ([2]; strain ADIP8-7) was 0.202 h⁻¹, the “lag time tlag (mean)” value ([2]; strain ADIP8-7) was 14.9 h and the “growth rate μ (mean)” value ([2]; strain ADIP8-10) was 0.202 h⁻¹. For the same compound, the “lag time tlag (mean)” value ([2]; strain ADIP8-10) was 14.2 h, the “growth rate μ (mean)” value ([2]; strain GLUT1-3) was 0.294 h⁻¹ and the “lag time tlag (mean)” value ([2]; strain GLUT1-3) was 13.5 h. The “growth rate μ (mean)” value ([2]; strain GLUT1-9) was 0.259 h⁻¹, the “lag time tlag (mean)” value ([2]; strain GLUT1-9) was 15.3 h and the “growth rate μ (mean)” value ([2]; strain GLUT1-10) was 0.286 h⁻¹. The “lag time tlag (mean)” value ([2]; strain GLUT1-10) was 19.2 h, the “growth rate μ (mean)” value ([2]; strain GLUT2-1) was 0.273 h⁻¹ and the “lag time tlag (mean)” value ([2]; strain GLUT2-1) was 13.7 h. The “growth rate μ (mean)” value ([2]; strain GLUT2-9) was 0.270 h⁻¹, the “lag time tlag (mean)” value ([2]; strain GLUT2-9) was 12.5 h and the “growth rate μ (mean)” value ([2]; strain GLUT2-10) was 0.282 h⁻¹. The “lag time tlag (mean)” value ([2]; strain GLUT2-10) was 12.2 h, the “growth rate μ (mean)” value ([2]; strain GLUT3-5) was 0.257 h⁻¹ and the “lag time tlag (mean)” value ([2]; strain GLUT3-5) was 15.4 h. The “growth rate μ (mean)” value ([2]; strain GLUT3-7) was 0.234 h⁻¹, the “lag time tlag (mean)” value ([2]; strain GLUT3-7) was 15.5 h and the “growth rate μ (mean)” value ([2]; strain GLUT3-9) was 0.252 h⁻¹. The “lag time tlag (mean)” value ([2]; strain GLUT3-9) was 20.5 h, the “growth rate μ (mean)” value ([2]; strain GLUT4-1) was 0.264 h⁻¹ and the “lag time tlag (mean)” value ([2]; strain GLUT4-1) was 15.9 h. For the same compound, the “growth rate μ (mean)” value ([2]; strain GLUT4-4) was 0.264 h⁻¹, the “lag time tlag (mean)” value ([2]; strain GLUT4-4) was 16.5 h and the “growth rate μ (mean)” value ([2]; strain GLUT4-10) was 0.250 h⁻¹. The “lag time tlag (mean)” value ([2]; strain GLUT4-10) was 15.6 h, the “growth rate μ (mean)” value ([2]; strain GLUT5-4) was 0.272 h⁻¹ and the “lag time tlag (mean)” value ([2]; strain GLUT5-4) was 15.3 h. The “growth rate μ (mean)” value ([2]; strain GLUT5-5) was 0.275 h⁻¹, the “lag time tlag (mean)” value ([2]; strain GLUT5-5) was 16.6 h and the “growth rate μ (mean)” value ([2]; strain GLUT5-9) was 0.246 h⁻¹. For the same compound, the “lag time tlag (mean)” value ([2]; strain GLUT5-9) was 16.4 h, the “growth rate μ (mean)” value ([2]; strain GLUT6-4) was 0.251 h⁻¹ and the “lag time tlag (mean)” value ([2]; strain GLUT6-4) was 14.5 h. For the same compound, the “growth rate μ (mean)” value ([2]; strain GLUT6-5) was 0.241 h⁻¹, the “lag time tlag (mean)” value ([2]; strain GLUT6-5) was 13.8 h and the “growth rate μ (mean)” value ([2]; strain GLUT6-10) was 0.245 h⁻¹. The “lag time tlag (mean)” value ([2]; strain GLUT6-10) was 14.8 h, the “growth rate μ (mean)” value ([2]; strain GLUT7-2) was 0.275 h⁻¹ and the “lag time tlag (mean)” value ([2]; strain GLUT7-2) was 16.1 h. The “growth rate μ (mean)” value ([2]; strain GLUT7-6) was 0.247 h⁻¹, the “lag time tlag (mean)” value ([2]; strain GLUT7-6) was 21.9 h and the “growth rate μ (mean)” value ([2]; strain GLUT7-7) was 0.185 h⁻¹. The “lag time tlag (mean)” value ([2]; strain GLUT7-7) was 19.1 h, the “growth rate μ (mean)” value ([2]; strain GLUT8-5) was 0.180 h⁻¹ and the “lag time tlag (mean)” value ([2]; strain GLUT8-5) was 15.8 h. For the same compound, the “growth rate μ (mean)” value ([2]; strain GLUT8-6) was 0.208 h⁻¹, the “lag time tlag (mean)” value ([2]; strain GLUT8-6) was 32.7 h and the “growth rate μ (mean)” value ([2]; strain GLUT8-9) was 0.192 h⁻¹. For the same compound, the “lag time tlag (mean)” value ([2]; strain GLUT8-9) was 47.7 h, the “growth rate μ (mean)” value ([2]; strain MG1655 (Table 26)) was 0.235 h⁻¹ and the “lag time tlag (mean)” value ([2]; strain MG1655 (Table 26)) was 17.1 h. For the same compound, the “growth rate μ (mean)” value ([2]; strain MG1655 (Table 27)) was 0.222 h⁻¹ and the “lag time tlag (mean)” value ([2]; strain MG1655 (Table 27)) was 16.5 h.
